One block for each compound: values may come before it.
Assay: solvent given as SMILES

Structure (SMILES): CCOC(=O)C1=C(C)NC2=C(C(=O)c3ccccc32)C1c1ccc(N(C)C)cc1 (configuration not stated)
emission maximum (in C1CCOC1): 497 nm | emission maximum (in C1COCCO1): 490 nm | emission maximum (in CC#N): 542 nm | emission maximum (in CCO): 559 nm | emission maximum (in CN(C)C=O): 540 nm | emission maximum (in CO): 561 nm | emission maximum (in CS(C)=O): 548 nm | emission maximum (in ClC(Cl)(Cl)Cl): 475 nm | emission maximum (in ClC(Cl)Cl): 532 nm | emission maximum (in ClCCl): 530 nm

Structure (SMILES): CN(C)c1ccc(-c2cc(-c3ccc(C#N)cc3)nn2C)cc1
emission maximum (in C1CCCCC1): 363 nm | emission maximum (in CC#N): 595 nm | emission maximum (in CCOC(C)=O): 481 nm | emission maximum (in CCOCC): 429 nm | emission maximum (in CN(C)C=O): 590 nm | emission maximum (in Cc1ccccc1): 410 nm | emission maximum (in ClCCl): 499 nm

Structure (SMILES): O=Cc1cc2c(cc3ccc4cccc5ccc2c3c45)[nH]1
emission maximum (in CCOC(C)=O): 438 nm

Structure (SMILES): Cn1nc(-c2ccccc2)c2nc3cc(Cl)ccc3nc21
emission maximum (in C1CCCCC1): 487 nm | emission maximum (in C1CCOC1): 519 nm | emission maximum (in CC#N): 540 nm

Structure (SMILES): F[B-]1(F)n2cccc2C(c2c3ccccc3cc3ccccc23)=C2C=CC=[N+]21
emission maximum (in CC#N): 519 nm | emission maximum (in CCCCCC): 521 nm | emission maximum (in CCO): 520 nm | emission maximum (in CN(C)C=O): 524 nm | emission maximum (in Cc1ccccc1): 525 nm | emission maximum (in ClCCl): 520 nm

Structure (SMILES): CCCCCCN(CCCCCC)c1ccc(C#Cc2c(F)c(F)c(F)c(F)c2F)cc1
emission maximum (in CO): 464 nm | emission maximum (in ClCCl): 502 nm

Structure (SMILES): Fc1cc(-c2nc(-c3ccccc3)nc(-c3ccccc3)n2)ccc1-n1c2ccccc2c2c3c(ccc21)C1(c2ccccc2-c2ccccc21)c1ccccc1-3
emission maximum (in C1CCOC1): 487.96 nm | emission maximum (in C1COCCO1): 461.11 nm | emission maximum (in CN(C)C=O): 533.56 nm | emission maximum (in Cc1ccccc1): 448 nm | emission maximum (in ClC(Cl)Cl): 500.23 nm

Structure (SMILES): CN(C)CCCN1c2ccccc2Sc2ccccc21
emission maximum (in CC#N): 444 nm | emission maximum (in CO): 444 nm | emission maximum (in O): 452 nm

Structure (SMILES): FC(F)(F)c1cc2n(n1)[B-](c1ccccc1)(c1ccccc1)[n+]1ccc3ccccc3c1-2
emission maximum (in C1CCCCC1): 410 nm | emission maximum (in Cc1ccccc1): 410 nm | emission maximum (in ClCCl): 404 nm

Structure (SMILES): CCCCCCCCCCCCCCOc1ccc(C#Cc2cc3nc4c(OCCCCCCCCCCCC)cc5c6cc(OCCCCCCCCCCCC)c(OCCCCCCCCCCCC)cc6c6cc(OCCCCCCCCCCCC)c(OCCCCCCCCCCCC)cc6c5c4nc3cc2C#Cc2ccc(OCCCCCCCCCCCCCC)cc2)cc1
emission maximum (in ClC(Cl)Cl): 663 nm

Structure (SMILES): COc1cc2cc(C#Cc3ccc(/C=C(\C#N)C(=O)O)cc3)c(=O)oc2cc1OC
emission maximum (in CC#N): 464 nm

Structure (SMILES): CCCCCCCC1=C(C)C(=O)n2c1cc1[nH]c(C(=O)OC)c(C)c1c2=O
emission maximum (in C1CCCCC1): 448 nm | emission maximum (in CO): 500 nm | emission maximum (in CS(C)=O): 482 nm | emission maximum (in ClC(Cl)Cl): 448 nm | emission maximum (in c1ccccc1): 441 nm

Structure (SMILES): CN(C)CCCN1c2ccccc2CCc2ccc(Cl)cc21
emission maximum (in CC#N): 348 nm | emission maximum (in CO): 353 nm | emission maximum (in O): 400 nm

Structure (SMILES): COCCOCCOc1ccc(OCCOCCOC)c(C=O)c1
emission maximum (in CC(C)(C)O): 444 nm | emission maximum (in CC(C)CO): 453 nm | emission maximum (in CC(C)O): 454 nm | emission maximum (in CCCCO): 456 nm | emission maximum (in CCCO): 460 nm | emission maximum (in CCO): 461 nm | emission maximum (in CN(C)C=O): 424 nm | emission maximum (in CNC=O): 458 nm | emission maximum (in CO): 468 nm | emission maximum (in NC=O): 463 nm | emission maximum (in O): 485 nm

Structure (SMILES): CCCCCCCCC1(CCCCCCCC)c2cc(-c3ccc(C(=O)OC)cc3)ccc2-c2ccc(-c3ccc(C(=O)OC)cc3)cc21
emission maximum (in ClC(Cl)Cl): 388 nm

Structure (SMILES): Fc1c(F)c(-n2c3ccccc3c3ccccc32)c(F)c(F)c1/C=C/C(=C(c1ccccc1)c1ccccc1)c1ccccc1
emission maximum (in Cc1ccccc1): 445 nm

Structure (SMILES): COc1ccc(-c2cnc3nn4ccccc4c3n2)cc1
emission maximum (in C1CCOC1): 455 nm

Structure (SMILES): COc1ccc2c(C=C(C#N)C#N)cc3ccc4cc(C=C(C#N)C#N)c5ccc(OC)cc5c4c3c2c1
emission maximum (in ClC(Cl)Cl): 545 nm

Structure (SMILES): Cc1cccc(C)c1/C=C/c1nc(N2CCOCC2)c2c([n+]1[O-])CCCC2
emission maximum (in ClCCl): 536 nm

Structure (SMILES): CCc1c(C)c2n(c1C)[B-](F)(F)[N+]1=C(c3ccc[nH]3)c3ccccc3C1=C2C
emission maximum (in C1CCOC1): 627 nm | emission maximum (in CC#N): 623 nm | emission maximum (in CCCCCC): 622 nm | emission maximum (in CO): 622 nm | emission maximum (in Cc1ccccc1): 630 nm | emission maximum (in ClCCl): 629 nm

Structure (SMILES): CCN(CC)c1ccc2cc(-c3nc4cc(C(=O)Nc5cccc(C)c5)ccc4o3)c(=O)oc2c1
emission maximum (in ClCCl): 495 nm

Structure (SMILES): CN(C)c1ccc(/C=C/c2cnc(C#Cc3ccc(C#N)cc3)o2)cc1
emission maximum (in ClCCl): 515 nm

Structure (SMILES): CC1(C)CC(=O)C2=C(C1)Oc1ccc3cc(O)ccc3c1C2c1ccccn1 (configuration not stated)
emission maximum (in C1CCOC1): 374 nm | emission maximum (in C1COCCO1): 377 nm | emission maximum (in CC#N): 378 nm | emission maximum (in CCCCCCC): 359 nm | emission maximum (in CCO): 377 nm | emission maximum (in CO): 377 nm | emission maximum (in O): 378 nm

Structure (SMILES): CCN(C)c1ccc(C2=C3C(C)=CC(C)=[N+]3[B-](F)(F)n3c(C)cc(C)c32)cc1
emission maximum (in CO): 513 nm

Structure (SMILES): CCOC(=O)CSc1nc(-c2ccc(OC)cc2)c(C)c(C#N)c1C#N
emission maximum (in c1ccccc1): 432 nm

Structure (SMILES): CCC1=C(C)C2=C(/C=C/Sc3ccccc3)c3c(C)c(CC)c(C)n3[B-](F)(F)[N+]2=C1C
emission maximum (in ClCCl): 580 nm

Structure (SMILES): N#Cc1nc(N(Cc2ccc(F)cc2)Cc2ccc(F)cc2)c(C#N)nc1N(Cc1ccc(F)cc1)Cc1ccc(F)cc1
emission maximum (in ClC(Cl)Cl): 577 nm

Structure (SMILES): Cc1nc2c(ccc3ccccc32)oc1=O
emission maximum (in c1ccccc1): 424 nm

Structure (SMILES): N#C/C(=C\c1cc(/C=C(\C#N)c2ccc(C(F)(F)F)cc2)c(-c2ccc(N(c3ccccc3)c3ccccc3)cc2)cc1-c1ccc(N(c2ccccc2)c2ccccc2)cc1)c1ccc(C(F)(F)F)cc1
emission maximum (in C1CCCCC1): 478 nm | emission maximum (in C1CCOC1): 587 nm | emission maximum (in CCCCCC): 473 nm | emission maximum (in CCOC(C)=O): 581 nm | emission maximum (in Cc1ccccc1): 515 nm | emission maximum (in ClC(Cl)Cl): 553 nm | emission maximum (in ClCCl): 594 nm

Structure (SMILES): COc1ccc(C2=C(Br)C(c3ccccc3)=[N+]3C2=Nc2c(-c4ccc(OC)cc4)c(Br)c(-c4ccccc4)n2[B-]3(F)F)cc1
emission maximum (in Cc1ccccc1): 691 nm

Structure (SMILES): CCN(CC)c1ccc2ccc(=O)oc2c1
emission maximum (in CC(C)=O): 430 nm | emission maximum (in CCCCCC): 392 nm | emission maximum (in CCCCCCC): 390 nm | emission maximum (in CCCCO): 442 nm | emission maximum (in CCCO): 442 nm | emission maximum (in CCO): 443 nm | emission maximum (in CCOCC): 405 nm | emission maximum (in CN(C)C=O): 440 nm | emission maximum (in CO): 445 nm | emission maximum (in Cc1ccccc1): 418 nm | emission maximum (in ClC(Cl)(Cl)Cl): 412 nm | emission maximum (in ClC(Cl)Cl): 435 nm | emission maximum (in ClCCl): 466 nm | emission maximum (in OCCO): 445 nm | emission maximum (in c1ccccc1): 395 nm

Structure (SMILES): CC(C)CCC[C@@H](C)[C@H]1CC[C@H]2[C@@H]3CC=C4C[C@@H](OC(=O)Oc5cc(/C=C/c6ccc(N(C)C)cc6)ccc5[N+](=O)[O-])CC[C@]4(C)[C@H]3CC[C@]12C
emission maximum (in C1CCCCC1): 503 nm | emission maximum (in C1COCCO1): 573 nm | emission maximum (in CCCCCCC): 503 nm | emission maximum (in Cc1ccccc1): 554 nm

Structure (SMILES): COc1ccc2c(c1)c1c(c3cc(OC)ccc32)=[N+]2C(=C(c3c(C)cc(C)cc3C)c3cc4c5cc(OC)ccc5c5ccc(OC)cc5c4n3[B-]2(F)F)C=1
emission maximum (in C1CCCCC1): 710 nm | emission maximum (in C1CCOC1): 713 nm | emission maximum (in CC#N): 711 nm | emission maximum (in Cc1ccccc1): 717 nm | emission maximum (in ClCCl): 713 nm

The remaining lines, values ahead:

emission maximum (in ClCCl): 653 nm
Structure (SMILES): Cc1ccc(-c2c3nc(c(-c4ccc(C)cc4)c4ccc([nH]4)c(-c4ccc(OC(=O)C(C)c5ccccc5)cc4)c4nc(c(-c5ccc(C)cc5)c5ccc2[nH]5)C=C4)C=C3)cc1 (configuration not stated)

emission maximum (in CCOC(C)=O): 476 nm
Structure (SMILES): CCn1ncc2c3c(C#N)c4c5ccccc5n(CC)c4nc3ccc21

emission maximum (in ClC(Cl)Cl): 447 nm
Structure (SMILES): F[B-]1(F)OC(c2ccccc2)=Cc2c3ccccc3c3ccccc3[n+]21

emission maximum (in ClCCl): 372 nm
Structure (SMILES): O=S(=O)(c1ccc2c(c1)c1ccccc1n2-c1ccccc1)c1ccc2c(c1)c1ccccc1n2-c1ccccc1

emission maximum (in ClC(Cl)Cl): 521 nm
Structure (SMILES): COc1ccc(-c2nc(-c3ccc(C)cc3)c3ccccn23)cc1

emission maximum (in ClCCl): 428 nm
Structure (SMILES): CCCCCC(=O)c1ccc2c3c(sc2c1)-c1ccccc1P3(=O)c1ccccc1 (configuration not stated)

emission maximum (in C1CCOC1): 468 nm
Structure (SMILES): Cc1cc(C2=C(c3cc(C)sc3C)P(=O)(c3ccccc3)c3ccccc32)c(C)s1 (configuration not stated)

emission maximum (in ClC(Cl)Cl): 708 nm
Structure (SMILES): CN1C(=CC2=C([O-])C(=Cc3sc4ccccc4[n+]3C)C2=C(C#N)C#N)C(C)(C)c2ccccc21

emission maximum (in ClCCl): 574 nm
Structure (SMILES): C1=CC2=CC=CC3C=c4c(cc5cccc6cccc4c65)C(=C1)C23 (configuration not stated)

emission maximum (in ClC(Cl)Cl): 632 nm
Structure (SMILES): CCCCN1c2ccccc2Sc2cc(/C=C\c3cc(=O)oc4cc(C)ccc34)ccc21

emission maximum (in CC#N): 731 nm | emission maximum (in CS(C)=O): 749 nm | emission maximum (in ClC(Cl)Cl): 730 nm
Structure (SMILES): C#CCn1c2ccccc2c2cc(/C=C/C3=[N+]4C(=C(c5ccc(I)cc5)c5c(C)c(Cl)c(/C=C/c6ccc7c(c6)c6ccccc6n7CC#C)n5[B-]4(F)F)C(C)=C3Cl)ccc21

emission maximum (in C1COCCO1): 428 nm
Structure (SMILES): c1ccc(-c2nc(-c3ccc(-c4nc(-c5ccccc5)c(-c5ccccc5)o4)cc3)oc2-c2ccccc2)cc1

emission maximum (in ClCCl): 589 nm
Structure (SMILES): O=c1c2cccc3cccc(c32)c2nc3c4ccccc4c4ccccc4c3n12

emission maximum (in CO): 350 nm | emission maximum (in CS(C)=O): 360 nm
Structure (SMILES): COc1ccc(NC(=O)C(C(=O)Nc2ccc(OC)cc2)C(c2ccccc2O)c2c(C)[nH]c3ccccc23)cc1 (configuration not stated)

emission maximum (in CC#N): 489 nm
Structure (SMILES): COc1cc2cc(/C=C/c3ccc(/C=C/c4ccc(/C=C(\C#N)C(=O)O)cc4)cc3)c(=O)oc2cc1OC

emission maximum (in C1CCOC1): 546 nm | emission maximum (in CCCCCC): 441 nm | emission maximum (in ClC(Cl)Cl): 495 nm | emission maximum (in ClCCl): 563 nm
Structure (SMILES): O=C1c2cccc3c(-n4c5ccccc5c5ccccc54)ccc(c23)C(=O)N1C1CCCCC1

emission maximum (in ClCCl): 495 nm
Structure (SMILES): COC(=O)C1=C(C(=O)OC)C2(c3cc([N+](=O)[O-])ccc3-c3ccc([N+](=O)[O-])cc32)C2(/C=C/c3ccccc3)c3cc(OC)c(OC)cc3CCN12 (configuration not stated)

emission maximum (in ClCCl): 468 nm
Structure (SMILES): c1ccc(N(c2ccccc2)c2ccc(-c3nc4c5ccccc5c5ccccc5c4n3-c3ccccc3)cc2)cc1

Source: the Deep4Chem optical property database
